Measured values reported in patent US20070190628A1, “Yeast food composition for fuel ethanol production” (priority 2006, published 2007).

Legend:
active dry yeast “z” [1] = assay: Individual nutritive elements added to normal gravity corn mash: fermentation rate and viable cell numbers; assay type: cell-based, Saccharomyces cerevisiae
Experimental: Normal gravity corn mash was prepared using ground #2 yellow dent corn obtained from Commercial Alcohols Inc. (275 Bloomfield Road, Chatham, Ontario, Canada N7M 5J5). […] One part by weight of ground corn was dispersed into three parts of 50° C., sterile dH2O containing 1 mM CaCl2.2H2O. To minimize the development of excessive viscosity during gelatinization, 1.25 mL of high temperature (HT-2X) α-amylase such as was supplied by Alltech Inc. in Nicholasville, Ky., USA (HT-2X α-amylase is no longer available from Alltech), was added per litre of mash as the ground corn was dispersed. It should be noted that if Ca-independent alpha amylases are used such as Termamyl® SC supplied by Novozymes North America in Franklinton, N.C., USA, then the 1 mM CaCl2.2H2O is not required. Following the addition of the ground corn and a five-minute mixing period to produce a homogenous mixture, the temperature was increased until the mash reached 94° C. where it was held at this temperature for 60 min with continued stirring. The temperature of the gelatinized starch was then reduced to 80° C. and liquefied by a second dose of HT-2X αx-amylase (1.25 mL/L) with continued stirring for 30 min. Sterile Celstir® (Wheaton Scientific, Millville, N.J.) fermentor vessels were filled with 1 L aliquots of this mash. To each fermentor vessel, filter-sterilized (25 mm, 0.2 μm Acrodisc® syringe filter, Pall Corporation, Ann Arbor, Mich.) urea (Fisher Scientific, Co., NJ), was added to achieve a final concentration of 8 mM. Cold-sterilization of the mash was assured by the addition of 100 μL of diethyl pyrocarbonate (DEPC, Sigma Chemical Co.) per litre of mash mixing the mash mechanically (IKA-Labortechnik, Staufen, Germany) for 5-10 min followed by cooling the fermentor vessels at 4° C. cold room for ˜72 hrs. The fermentor vessels were then removed from the cold room, connected to 30° C. water bath circulators and mixed. Glucoamylase in the form of Allcholase II 400 supplied by Alltech Inc. was then added (1.5 mL/L mash) 30 min prior to yeast inoculation to initiate saccharification of the dextrins formed during gelatinization and liquefaction (it should be noted that Allcholase II 400 is no longer available and any glucoamylase may be used). The mash thus prepared contained 19-20 g of dissolved solids/100 mL of mash as determined by a digital density meter analyzer (model DMA-45, Anton Paar KG, Graz, Austria) maintained at 20° C.
Eleven grams of a commercially available active dry yeast, designated as “z”, were rehydrated by dispersal in 99 mL of preheated 38° C., 0.1% (w/v) sterile water and incubation for 20 min with periodic shaking in a 38° C. water bath. Fermentor vessels containing normal density corn mash were prepared as described above and inoculated with sufficient active yeast to provide an initial viable cell count of 1×10^7 cells per mL mash. The optimal fermentation temperature for the active dry yeast “z” was determined by conducting fermentations at 30°, 34°, 36°, 38°, and 40° C.
The effects of individual elements on yeast cell biomass production and fermentation in a fermentation feedstock were assessed by separately supplementing of corn mash with nitrogen, phosphorus, magnesium, sulphur and zinc. Nitrogen effects were assessed in corn mashes by the additions of urea to provide final concentrations in the mash of […]. Phosphorus effects were assessed in corn mashes amended with 16 mM urea, by the additions of (NH4)2HPO4 (BDH Chemicals Inc, Toronto, Ont., MW: 132.06) to provide final concentrations of 0, 0.1, 0.2, 0.4, 0.6, and 0.8 g of (NH4)2HPO4/L of mash. Magnesium effects were assessed in corn mashes amended with 16 mM urea, by the additions of MgSO4.7H2O (BDH Chemicals Inc., MW. 246.48) to provide final concentrations of 0, 0.025, 0.049, 0.074, 0.099, 0.148, 0.197 g of MgSO4.7H2O/L of mash. […]

active dry yeast “z” [2] = assay: EVOP optimization of phosphorus and sulfur concentrations for fermentation rate in corn mash; assay type: cell-based, Saccharomyces cerevisiae; conditions: combined with 16 mM urea, 0.049 g/L MgSO4.7H2O and 0.273 mg/L ZnSO4.7H2O
Experimental: The Evolution Operation Method (EVOP) described by Box et al, (1969, Evolutionary Operation: A Statistical Method for Process Improvement, John Wiley & Sons, NY, N.Y.) was used to optimize the concentrations of phosphorus and sulfur combined with urea, magnesium and zinc for increasing fermentation rates in corn mash.
Multiple sterile 2-L Celstir® fermentors were each filled with 1 L of corn mash supplemented with 16 mM urea, 0.049 g/L MgSO4.7H2O, and 0.273 mg/L ZnSO4.7H2O. The active dry yeast “z” was used as the inoculum in this study. The EVOP testing was conducted by using the “low” concentration values of phosphorus and sulfur (0.8 g/L (NH4)2HPO4 and 0.16 g/L (NH4)2SO4) from Table 1 as the center points for assessing 4 additional phosphorus and sulphur concentrations around these points for their effects on fermentation rates. If the response of a particular point around the center point was significant, then this particular point became the new center point and 4 new concentration values would be examined as described by Box et al (1969). […] Fermentation rates were determined by repeated sampling and sample processing at specific time intervals as described in Example 1.

[3] = (NH4)2HPO4 above 0.4 g/L, mash with 16 mM urea
[4] = ZnSO4.7H2O 0.287 mg/L to 2.30 mg/L (1 to 8 μM), mash with 16 mM urea

## N.N.O=P(O)(O)O [(NH4)2HPO4]
Active dry yeast “z” [1]; 0.1 g/L to 0.4 g/L (NH4)2HPO4, mash with 16 mM urea
  effect on rates of dissolved solids utilization: significantly increased
Active dry yeast “z” [1]; [3]
  effect on cell yields: decreased cell yields
  effect on fermentation rates: decreased fermentation rates
Active dry yeast “z” [2]
  optimal concentration for supplementing corn mash: 1.6 g/L

## O.O.O.O.O.O.O.O=S(=O)([O-])[O-].[Mg+2] [MgSO4.7H2O]
Active dry yeast “z” [1]; MgSO4.7H2O exceeding 0.074 g/L (0.3 mM Mg2+), mash with 16 mM urea
  effect on fermentation rate: decreased fermentation rate

## O.O.O.O.O.O.O.O=S(=O)([O-])[O-].[Zn+2] [ZnSO4.7H2O]
Active dry yeast “z” [1]; [4]
  effect on fermentation rates: negative effects
  effect on numbers of yeast cells produced: negative effects

## N.N.O=S(=O)(O)O [(NH4)2SO4]
Active dry yeast “z” [1]; (NH4)2SO4 above 0.04 g/L, mash with 16 mM urea
  effect on the rate of fermentation: did not further benefit
Active dry yeast “z” [1]; (NH4)2SO4 above 0.04 g/L, mash with 16 mM urea, increased from 3.3×10^8/mL
  yeast cell yields: 4e+08 mL⁻¹
Active dry yeast “z” [2]
  optimal concentration for supplementing corn mash: 0.32 g/L
